Data reported in ChEMBL document CHEMBL1821601, “Impact of passive permeability and gut efflux transport on the oral bioavailability of novel series of piperidine-based renin inhibitors in rodents” (Bioorg Med Chem Lett, 2011).

Columns and labels:
[1] = Oral bioavailability in rat at 3 mg/kg pre-dosed with 50 mg/kg, po of Pgp and Bcrp inhibitor elacridar 15 mins before drug challenge; assay type: ADME, organism-based; settings: in vivo
[2] = system: rat Mdr1a; experiment: Apparent permeability across pig LLC-PK1 cells transfected with rat Mdr1a; assay type: ADME, cell-based, Sus scrofa
[3] = Oral bioavailability in rat at 10 mg/kg; assay type: ADME, organism-based; settings: in vivo
[4] = (§1) Oral bioavailability in rat at 3 mg/kg; assay type: ADME, organism-based; settings: in vivo
[5] = AUC (0 to 24 hrs) in rat at 3 mg/kg, po pre-dosed with 50 mg/kg, po of Pgp and Bcrp inhibitor elacridar 15 mins before drug challenge; assay type: ADME, organism-based; set-up: dose 3 mg/kg, time < 24 hr, route oral; settings: plasma
[6] = (§2) Oral bioavailability in rat at 30 mg/kg; assay type: ADME, organism-based; settings: in vivo
[7] = as §1; assay type: ADME, organism-based; settings: in vivo; remark: listed apart in the source
[8] = Plasma clearance in rat at 5 mg/kg, iv; assay type: ADME, organism-based; set-up: dose 5 mg/kg, route intravenous
[9] = Plasma clearance in rat at 0.5 mg/kg, iv; assay type: ADME, organism-based; set-up: dose 0.5 mg/kg, route intravenous
[10] = AUC (0 to 24 hrs) in FVB mouse expressing wild type MDR1a at 30 mg/kg, po; assay type: ADME, organism-based; set-up: time < 24 hr, dose 30 mg/kg, route oral; settings: plasma
[11] = Drug uptake in MDR1a-deficient FVB mouse brain at 30 mg/kg, po after 24 hrs; assay type: ADME, organism-based; set-up: dose 30 mg/kg, route oral; settings: read-out: Drug uptake
[12] = system: Mus musculus; experiment: Volume of distribution at steady state in MDR1a-deficient FVB mouse at 30 mg/kg, po and 5 mg/kg, iv; assay type: ADME, organism-based; settings: in vivo
[13] = Oral bioavailability in FVB mouse expressing wild type MDR1a at 30 mg/kg; assay type: ADME, organism-based; settings: in vivo
[14] = system: Mus musculus; experiment: Ratio of oral bioavailability in MDR1a-deficient FVB mouse to oral bioavailability in FVB mouse expressing wild type MDR1a at 30 mg/kg; assay type: ADME, organism-based; settings: in vivo
[15] = system: Mus musculus; experiment: Ratio of volume of distribution at steady state in MDR1a-deficient FVB mouse to volume of distribution at steady state in FVB mouse expressing wild type MDR1a at 30 mg/kg, po and 5 mg/kg, iv; assay type: ADME, organism-based; settings: in vivo
[16] = system: Brain; experiment: Ratio of drug uptake in MDR1a-deficient FVB mouse brain to drug uptake in FVB mouse expressing wild type MDR1a brain at 30 mg/kg, po after 24 hrs; assay type: ADME, organism-based; set-up: dose 30 mg/kg, route oral; settings: in vivo
[17] = system: Mus musculus; experiment: Ratio of AUC (0 to 24 hrs) in MDR1a-deficient FVB mouse to AUC (0 to 24 hrs) in FVB mouse expressing wild type MDR1a at 30 mg/kg, po; assay type: ADME, organism-based; set-up: dose 30 mg/kg, route oral; settings: in vivo
[18] = system: Brain; experiment: Ratio of drug uptake in MDR1a-deficient FVB mouse brain to drug uptake in FVB mouse expressing wild type MDR1a brain at 5 mg/kg, iv after 24 hrs; assay type: ADME, organism-based; set-up: dose 5 mg/kg, route intravenous; settings: in vivo
[19] = system: Mus musculus; experiment: Volume of distribution at steady state in FVB mouse expressing wild type MDR1a at 30 mg/kg, po and 5 mg/kg, iv; assay type: ADME, organism-based; settings: in vivo
[20] = system: Mus musculus; experiment: Ratio of blood clearance in MDR1a-deficient FVB mouse to blood clearance in FVB mouse expressing wild type MDR1a at 30 mg/kg, po and 5 mg/kg, iv; assay type: ADME, organism-based; settings: in vivo
[21] = Drug uptake in MDR1a-deficient FVB mouse brain at 5 mg/kg, iv after 24 hrs; assay type: ADME, organism-based; set-up: dose 5 mg/kg, route intravenous; settings: read-out: Drug uptake
[22] = Drug uptake in FVB mouse expressing wild type MDR1a brain at 5 mg/kg, iv after 24 hrs; assay type: ADME, organism-based; set-up: dose 5 mg/kg, route intravenous; settings: read-out: Drug uptake
[23] = Drug uptake in FVB mouse expressing wild type MDR1a brain at 30 mg/kg, po after 24 hrs; assay type: ADME, organism-based; set-up: dose 30 mg/kg, route oral; settings: read-out: Drug uptake
[24] = Oral bioavailability in MDR1a-deficient FVB mouse at 30 mg/kg; assay type: ADME, organism-based; settings: in vivo
[25] = Blood clearance in MDR1a-deficient FVB mouse at 30 mg/kg, po and 5 mg/kg, iv; assay type: ADME, organism-based; settings: whole blood
[26] = AUC (0 to 24 hrs) in MDR1a-deficient FVB mouse at 30 mg/kg, po; assay type: ADME, organism-based; set-up: time < 24 hr, dose 30 mg/kg, route oral; settings: plasma
[27] = Blood clearance in FVB mouse expressing wild type MDR1a at 30 mg/kg, po and 5 mg/kg, iv; assay type: ADME, organism-based; settings: whole blood
[28] = Apparent Passive permeability across pig LLC-PK1 cells; assay type: ADME, cell-based, Sus scrofa
[29] = Lipophilicity, Log D of the compound at pH 7 by RP-HPLC analysis; assay type: physicochemical; settings: buffer
[30] = Plasma clearance in rat at 30 mg/kg, po and 5 mg/kg, iv; assay type: ADME, organism-based
[31] = Oral bioavailability in dog at 3 mg/kg; assay type: ADME, organism-based, Canis lupus familiaris; settings: in vivo
[32] = as §2; assay type: ADME, organism-based; settings: in vivo; remark: listed apart in the source
[33] = Plasma clearance in dog at 3 mg/kg, po and 1 mg/kg, iv; assay type: ADME, organism-based, Canis lupus familiaris
[34] = Drug recovery in permanently bile-duct cannulated rat urine supplimented with artificial bile at 20 mg/kg, po after 48 hrs by HPLC-MS/MS analysis; assay type: ADME, organism-based; set-up: dose 20 mg/kg, route oral; settings: read-out: Drug uptake
[35] = Drug recovery in permanently bile-duct cannulated rat feces supplimented with artificial bile at 20 mg/kg, po after 48 hrs by HPLC-MS/MS analysis; assay type: ADME, organism-based; set-up: dose 20 mg/kg, route oral; settings: faeces, read-out: Drug uptake
[36] = Drug recovery in permanently bile-duct cannulated rat supplimented with artificial bile at 5 mg/kg, iv after 48 hrs by HPLC-MS/MS analysis; assay type: ADME, organism-based; set-up: dose 5 mg/kg, route intravenous; settings: in vivo, read-out: Drug uptake
[37] = Drug recovery in permanently bile-duct cannulated rat bile supplimented with artificial bile at 5 mg/kg, iv after 48 hrs by HPLC-MS/MS analysis; assay type: ADME, organism-based; set-up: dose 5 mg/kg, route intravenous; settings: read-out: Drug uptake
[38] = Drug recovery in permanently bile-duct cannulated rat bile supplimented with artificial bile at 20 mg/kg, po after 48 hrs by HPLC-MS/MS analysis; assay type: ADME, organism-based; set-up: dose 20 mg/kg, route oral; settings: read-out: Drug uptake
[39] = Drug recovery in permanently bile-duct cannulated rat supplimented with artificial bile at 20 mg/kg, po after 48 hrs by HPLC-MS/MS analysis; assay type: ADME, organism-based; set-up: dose 20 mg/kg, route oral; settings: in vivo, read-out: Drug uptake
[40] = Drug recovery in permanently bile-duct cannulated rat feces supplimented with artificial bile at 5 mg/kg, iv after 48 hrs by HPLC-MS/MS analysis; assay type: ADME, organism-based; set-up: dose 5 mg/kg, route intravenous; settings: faeces, read-out: Drug uptake
[41] = Drug recovery in permanently bile-duct cannulated rat urine supplimented with artificial bile at 5 mg/kg, iv after 48 hrs by HPLC-MS/MS analysis; assay type: ADME, organism-based; set-up: dose 5 mg/kg, route intravenous; settings: read-out: Drug uptake
[42] = system: LLC-PK1; experiment: Ratio of permeability from basolateral to apical side to apical to basolateral side of pig LLC-PK1 cells transfected with rat Mdr1a; assay type: ADME, cell-based, Sus scrofa
[43] = Oral bioavailability in rat at 0.3 mg/kg pre-dosed with 50 mg/kg, po of Pgp and Bcrp inhibitor elacridar 15 mins before drug challenge; assay type: ADME, organism-based; settings: in vivo
[44] = Oral bioavailability in rat at 0.3 mg/kg; assay type: ADME, organism-based; settings: in vivo
[45] = Cmax in rat plasma at 3 mg/kg, po; assay type: ADME, organism-based; set-up: dose 3 mg/kg, route oral

`COCCCc1cc(Cl)c(Cl)c(CN(C(=O)[C@H]2CNCC[C@@H]2c2ccn(C)c(=O)c2)C2CC2)c1` gave a bioavailability [1] of 20%, a Papp [2] of 3 ×10⁻⁶ cm/s and a bioavailability [3] of 21%. It also gave a bioavailability [4] of 2%, an AUC(0-t) at 24 h [5] of 0.033 µM·h and a bioavailability [6] of 24%. For the same molecule, the bioavailability [7] was 2%, the clearance [8] was 67 mL/min/kg and the clearance [9] was 57 mL/min/kg.
With `COCCCc1cc(CN(C(=O)[C@H]2CNCC[C@@H]2c2ccn(C)c(=O)c2)C2CC2)cc(Br)c1C` the AUC(0-t) at 24 h [10] was 0.8 µM·h, the concentration at 24 h [11] was 504 nM and the Vdss [12] was 4.7 L/kg. The bioavailability [13] was 7%, the bioavailability [1] was 31% and the “fold change (FC)” value [14] was 4. For the same molecule, the Papp [2] was 2 ×10⁻⁶ cm/s, the bioavailability [3] was 7% and the “fold change (FC)” value [15] was 1.3. For the same molecule, the “fold change (FC)” value [16] was 63, the “fold change (FC)” value [17] was 5 and the “fold change (FC)” value [18] was 32. For the same molecule, the Vdss [19] was 3.7 L/kg, the bioavailability [4] was 6% and the AUC(0-t) at 24 h [5] was 0.044 µM·h. The bioavailability [6] was 17%, the “fold change (FC)” value [20] was 0.9 and the concentration at 24 h [21] was 239 nM. It also gave a concentration at 24 h [22] of 7.3 nM, a concentration at 24 h [23] of 8 nM and a bioavailability [7] of 3%. For the same molecule, the bioavailability [24] was 29%, the clearance [8] was 75 mL/min/kg and the clearance [25] was 72 mL/min/kg. It also gave an AUC(0-t) at 24 h [26] of 4 µM·h, a clearance [27] of 82 mL/min/kg and a clearance [9] of 125 mL/min/kg.
For `COCCc1ccc(Cl)c(CN(C(=O)[C@H]2CNCC[C@]2(O)c2ccc(F)c(F)c2)C2CC2)c1`, the bioavailability [4] was 16%, the Papp [28] was 11 ×10⁻⁶ cm/s and the logD [29] was 3.1.
Molecule `COCCCc1cc(CN(C(=O)[C@H]2CNCC[C@@H]2c2ccc(OCCOc3c(Cl)cc(C)cc3Cl)cc2)C2CC2)cc(OCCOC)c1.Cl` has a clearance [30] of 11 mL/min/kg, a bioavailability [31] of 44% and a bioavailability [32] of 27%. For the same molecule, the clearance [33] was 26 mL/min/kg.
With `COCCCc1cc(CN(C(=O)[C@H]2CNCC[C@@H]2c2ccn(C)c(=O)c2)C2CC2)cc(OCCOC)c1.Cl` the Papp [2] was less than 3 ×10⁻⁶ cm/s, the clearance [30] was 31 mL/min/kg and the dose excreted at 48 h [34] was 2%. For the same molecule, the bioavailability [4] was 0.5%, the Papp [28] was 2 ×10⁻⁶ cm/s and the dose excreted at 48 h [35] was 73%. The bioavailability [31] was 1%, the bioavailability [6] was 3% and the logD [29] was 0.9. For the same molecule, the dose excreted at 48 h [36] was 45%, the dose excreted at 48 h [37] was 25% and the dose excreted at 48 h [38] was 0.1%. The dose excreted at 48 h [39] was 75%, the bioavailability [32] was 3% and the dose excreted at 48 h [40] was 10%. For the same molecule, the clearance [8] was 31 mL/min/kg, the dose excreted at 48 h [41] was 10% and the clearance [33] was 9.2 mL/min/kg. For the same molecule, the clearance [9] was 43 mL/min/kg.
Work on `COCCOc1cc(CCOC)cc(CN(C(=O)[C@H]2CNCC[C@]2(O)c2ccc(F)c(F)c2)C2CC2)c1` yielded a bioavailability [1] of 24%, a Papp [2] of 22 ×10⁻⁶ cm/s and a Ratio [42] of 19. For the same molecule, the bioavailability [43] was 14%, the bioavailability [4] was 29% and the Papp [28] was 22 ×10⁻⁶ cm/s. The logD [29] was 2.6, the bioavailability [44] was 17% and the bioavailability [7] was 29%.
Molecule `COCCc1ccc(Cl)c(CN(C(=O)[C@H]2CNCC[C@@H]2c2ccn(C)c(=O)c2)C2CC2)c1` has a bioavailability [4] of 1%, a Papp [28] of 1 ×10⁻⁶ cm/s and a logD [29] of 1.
In the case of `COc1cc2c(cc1OC)CN(CCc1ccc(NC(=O)c3cccc4c(=O)c5cccc(OC)c5[nH]c34)cc1)CC2` [ELACRIDAR], the Cmax [45] is reported as 200 nM.
